Values after ≈ are worked out from the molar mass of the structure shown. Active and inactive are the calls of the source. No cut-off for these calls is given here.
How the values were obtained:
STC-1 [1] = experiment: Anti-obesity activity in mouse STC-1 cells assessed as increase in Tas2r105 mRNA expression level at 5 to 10 ug/ml incubated for 2 hrs by RT-qPCR analysis; type: functional, cell-based; settings: dose 5-10 µg/ml
STC-1 [2] = experiment: Anti-obesity activity in mouse STC-1 cells assessed as increase in Tas2r120 mRNA expression level at 5 to 10 ug/ml incubated for 2 hrs by RT-qPCR analysis; type: functional, cell-based; settings: dose 5-10 µg/ml
STC-1 [3] = experiment: Anti-obesity activity in mouse STC-1 cells assessed as increase in Tas2r119 mRNA expression level at 5 to 10 ug/ml incubated for 2 hrs by RT-qPCR analysis; type: functional, cell-based; settings: dose 5-10 µg/ml
STC-1 [4] = experiment: Agonist activity at Tas2r in mouse STC-1 cells assessed as increase in intracellular calcium level measured every 10 sec for 5 mins by Fluo-4-AM dye based fluorescence analysis; type: cell-based; settings: filed as agonist, dose 5-10 µg/ml
STC-1 [5] = experiment: Anti-obesity activity in mouse STC-1 cells assessed as increase in […] mRNA expression level at 5 to 10 ug/ml incubated for 2 hrs by RT-qPCR analysis; type: functional, cell-based; settings: dose 5-10 µg/ml
STC-1 [6] = experiment: Anti-obesity activity in mouse STC-1 cells assessed as increase in GLP-1 secretion at 10 ug/ml incubated for 120 mins by ELISA; type: functional, cell-based; settings: dose 10.0 µg/ml
STC-1 [7] = experiment: Anti-obesity activity in mouse STC-1 cells assessed as increase in Tas2r138 mRNA expression level at 5 to 10 ug/ml incubated for 2 hrs by RT-qPCR analysis; type: functional, cell-based; settings: dose 5-10 µg/ml
STC-1 [8] = experiment: Anti-obesity activity in mouse STC-1 cells assessed as increase in CCK secretion at 10 ug/ml incubated for 120 mins by EIA; type: functional, cell-based; settings: dose 10.0 µg/ml
[9] = Cytotoxicity against mouse STC-1 cells assessed as reduction in cell viability at 5 to 10 ug/ml after 2 to 24 hrs by MTT assay; type: toxicity, cell-based; settings: dose lower 5 µg/ml, time lower 2 hrs, dose upper 10 µg/ml, time upper 24 hrs
[10] = Cytotoxicity against mouse STC-1 cells assessed as cell viability at 10 ug/ml after 24 hrs by MTT assay relative to control; type: toxicity, cell-based; settings: at 10 µg/mL, read-out: Activity
[11] = Cytotoxicity against mouse STC-1 cells assessed as reduction in cell viability at 50 ug/ml after 2 to 24 hrs by MTT assay; type: toxicity, cell-based; settings: time 2-24 hrs, dose 50 µg/ml
[12] = Anti-obesity activity in mouse STC-1 cells assessed as GLP-1 secretion at 10 ug/ml incubated for 120 mins by ELISA (reference value: 13.29 +/- 1.3 pg/ml); type: functional; settings: dose 10 µg/ml, 2 h
[13] = Anti-obesity activity in mouse STC-1 cells assessed as GLP-1 secretion at 5 ug/ml incubated for 120 mins by ELISA (reference value: 13.29 +/- 1.3 pg/ml); type: functional; settings: dose 5 µg/ml, 2 h
[14] = Anti-obesity activity in mouse STC-1 cells assessed as increase in GLP-1 secretion by measuring fold change at 5 to 10 ug/ml incubated for 120 mins by ELISA; type: functional; settings: dose 5-10 µg/ml, 2 h
[15] = Cytotoxicity against mouse STC-1 cells assessed as reduction in cell viability after 2 hrs by MTT assay; type: toxicity, cell-based
STC-1 [16] = experiment: Anti-obesity activity in mouse STC-1 cells assessed as increase in GLP-1 secretion incubated for 120 mins by ELISA; type: functional, cell-based; settings: dose 5-10 µg/ml
[17] = Cytotoxicity against mouse STC-1 cells assessed as reduction in cell viability after 24 hrs by MTT assay; type: toxicity, cell-based
STC-1 [18] = experiment: Anti-obesity activity in mouse STC-1 cells assessed as increase in GLP-1 secretion at 5 to 10 ug/ml incubated for 120 mins by ELISA; type: functional, cell-based; settings: dose 5-10 µg/ml
[19] = Cytotoxicity against mouse STC-1 cells assessed as reduction in cell viability at 5 to 50 ug/ml after 2 to 24 hrs by MTT assay; type: toxicity, cell-based; settings: dose lower 5 µg/ml, time lower 2 hrs, dose upper 50 µg/ml, time upper 24 hrs

SMILES	Activity (STC-1 [1])	Activity (STC-1 [2])	Activity (STC-1 [3])	Activity (STC-1 [4])	Activity (STC-1 [5])	Activity (STC-1 [6])	Activity (STC-1 [7])	Activity (STC-1 [8])	Activity [9]	viability at 24 h, 10 ug/ml [10]	Activity [11]	Activity [12]	Activity [13]	fold change (FC) [14]	IC50 at 2 h [15]	Activity (STC-1 [16])	IC50 at 24 h [17]	Activity (STC-1 [18])	Activity [19]
CC(C)=CCC1=C(O)C(C(=O)C(C)C)=C(O)C(CC=C(C)C)(CC=C(C)C)C1=O	Active	Active	Active	Dose-Dependent Effect	Active	Active	Active	Active	Non-Toxic										
COc1cc(O)c(CC=C(C)C)c(O)c1C(=O)/C=C/c1ccc(O)cc1 [XANTHOHUMOL]				Dose-Dependent Effect			Active	Active		35%	Toxic	28.39 pg/mL	20.39 pg/mL	~2	35.3 µg/mL (≈ 99.6 µM)	Dose-Dependent Effect	8 µg/mL (≈ 22.6 µM)		
CC(C)=CCC1=C(O)[C@@](O)(CC=C(C)C)C(=O)C(C(=O)C(C)C)=C1O				Dose-Dependent Effect	Active		Active											inactive	Non-Toxic

Reference: ChEMBL document CHEMBL5584312, “Insight into the Interaction of Humulus lupulus L. Specialized Metabolites and Gastrointestinal Bitter Taste Receptors: In Vitro Study in STC-1 Cells and Molecular Docking” (J Nat Prod, 2024)
